Assay results published in the NIST ThermoML archive (doi:10.1016/j.fluid.2012.06.014).

Details: for viscosity / mass density: 101.33 kPa, Liquid; for viscosity: Capillary tube (Ostwald / Ubbelohde) method; for mass density: Vibrating tube method

CCCCCCn1cc[n+](C)c1.N#C[B-](C#N)(C#N)C#N [1-hexyl-3-methylimidazolium tetracyanoborate]
Details | mass density [kg/m3] | viscosity [mPa·s]
293.15 K | 993.4 | 66.61
298.15 K | 989.8 | 49.8
303.15 K | 986.2 | 38.92
308.15 K | 982.7 | 31.04
313.15 K | 979.1 | 25.2
318.15 K | 975.6 | 20.8
323.15 K | 972.1 | 17.41
328.14 K | 968.6 | 14.76
333.14 K | 965.2 | 12.66
338.14 K | 961.7 | 10.97
343.14 K | 958.3 | 9.584
348.14 K | 954.9 | 8.445
353.15 K | 951.5 | 7.497
358.14 K | 948.1 | 6.701
363.14 K | 944.8 | 6.026

Details | surface tension liquid-gas [mN/m]
298.15 K, Pendant drop shape | 41.1
